The results in this text go back to patent publication US8969325B2, “TRPV1 antagonists” (AbbVie Inc., priority 2011, dated 2015).

SMILES strings stand for the structures.

In assay [1] the target is T1, human TRPV1 (Homo sapiens (Human), UniProt Q8NER1). Put plainly: Capsaicin Activation Assay (intracellular Ca2+, FLIPR). Particulars: recombinant HEK293 cells expressing hTRPV1, 50 nM capsaicin. It is filed as cell-based. The procedure, abridged: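 Ca2+ fluorescence was recorded by FLIPR every 1 to 5 seconds in HEK293 cells, clonally selected for stable human TRPV1 expression and plated one day ahead. Test compounds came as serial dilutions of 10 mM DMSO stocks.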

The target of assay [2] is T1, human TRPV1. Put plainly: Acid Activation Assay (pH 5.0, intracellular Ca2+, FLIPR). In kind it is cell-based. As to conditions: percentage of the maximal pH 5.0-induced response remaining; recombinant HEK293 hTRPV1 cells; maximum concentration tested 37.5 μM. In a few lines: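 Readout: peak [Ca2+]i fluorescence over baseline on FLIPR, expressed as percentage remaining of the maximal pH 5.0-evoked signal. Stable hTRPV1-HEK293 cells with Calcium-4 dye received compound (12 half-log concentrations, maximum 37.5 μM) 3 min before acidic pH 5.0 buffer.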

T1 sequence (Q8NER1 whole entry): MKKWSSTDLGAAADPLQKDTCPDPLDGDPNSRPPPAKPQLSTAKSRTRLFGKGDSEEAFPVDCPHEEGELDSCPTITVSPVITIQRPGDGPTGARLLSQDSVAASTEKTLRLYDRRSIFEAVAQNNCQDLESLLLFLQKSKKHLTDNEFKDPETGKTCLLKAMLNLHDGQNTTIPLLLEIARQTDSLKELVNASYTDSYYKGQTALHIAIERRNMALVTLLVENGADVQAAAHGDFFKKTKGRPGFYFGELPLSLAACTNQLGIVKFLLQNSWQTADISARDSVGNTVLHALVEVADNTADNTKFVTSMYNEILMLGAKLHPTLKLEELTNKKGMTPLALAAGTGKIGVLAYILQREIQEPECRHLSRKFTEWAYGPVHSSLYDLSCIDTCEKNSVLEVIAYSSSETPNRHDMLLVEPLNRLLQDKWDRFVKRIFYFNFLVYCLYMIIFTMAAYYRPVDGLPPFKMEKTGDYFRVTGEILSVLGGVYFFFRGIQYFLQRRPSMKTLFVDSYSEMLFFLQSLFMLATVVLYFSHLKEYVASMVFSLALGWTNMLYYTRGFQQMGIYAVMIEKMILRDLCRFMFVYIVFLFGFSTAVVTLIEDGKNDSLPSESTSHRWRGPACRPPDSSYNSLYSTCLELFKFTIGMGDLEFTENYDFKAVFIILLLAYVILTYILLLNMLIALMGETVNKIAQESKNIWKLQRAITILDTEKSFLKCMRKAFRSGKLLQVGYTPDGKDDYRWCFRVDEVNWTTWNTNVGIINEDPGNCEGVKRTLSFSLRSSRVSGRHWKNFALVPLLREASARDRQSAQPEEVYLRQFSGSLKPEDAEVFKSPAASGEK

Consider `CN1C(=O)CCc2ccc(NC(=O)N[C@@H]3CC(C)(C)Oc4cc(Br)ccc43)cc21` [Example 297, 1-[(4R)-7-bromo-2,2-dimethyl-3,4-dihydro-2H-chromen-4-yl]-3-(1-methyl-2-oxo-1,2,3,4-tetrahydroquinolin-7-yl)urea], for which the IC50 on human TRPV1 [1] was 130 nM. The “human TRPV1 H^+ (max % remain)” value at human TRPV1 [2] was 67%.

Regarding `CN1C(=O)CCc2ccc(NC(=O)N[C@@H]3C[C@@](C)(C(F)(F)F)Oc4ccccc43)cc21` [Example 298, 1-(1-methyl-2-oxo-1,2,3,4-tetrahydroquinolin-7-yl)-3-[(2S,4R)-2-methyl-2-(trifluoromethyl)-3,4-dihydro-2H-chromen-4-yl]urea], at human TRPV1 [1], the IC50 was found to be 67 nM. Besides, the “human TRPV1 H^+ (max % remain)” value at human TRPV1 [2] amounted to 69%.

As for `CN1C(=O)CCc2ccc(NC(=O)N[C@@H]3CC(C)(C)Oc4c3ccc(F)c4F)cc21` [Example 299, 1-[(4R)-7,8-difluoro-2,2-dimethyl-3,4-dihydro-2H-chromen-4-yl]-3-(1-methyl-2-oxo-1,2,3,4-tetrahydroquinolin-7-yl)urea], the IC50 on human TRPV1 [1] stood at 54 nM. The “human TRPV1 H^+ (max % remain)” value at human TRPV1 [2] stood at 84%.

As for `O=C(Nc1ccc2c(c1)NC(=O)C(N1CCOCC1)C2)N[C@@H]1CC(CF)(CF)Oc2cc(Cl)ccc21` (stereo partly drawn) [Example 300, 1-[(4R)-7-chloro-2,2-bis(fluoromethyl)-3,4-dihydro-2H-chromen-4-yl]-3-[3-(morpholin-4-yl)-2-oxo-1,2,3,4-tetrahydroquinolin-7-yl]urea], the IC50 at human TRPV1 [1] came to 62 nM. For the same compound, the “human TRPV1 H^+ (max % remain)” value at human TRPV1 [2] worked out at 75%.

Consider `CC1(C)C[C@@H](NC(=O)Nc2ccc3c(c2)NC(=O)C(N2CCOCC2)C3)c2ccc(F)cc2O1` (stereo partly drawn) [Example 301, 1-[(4R)-7-fluoro-2,2-dimethyl-3,4-dihydro-2H-chromen-4-yl]-3-[3-(morpholin-4-yl)-2-oxo-1,2,3,4-tetrahydroquinolin-7-yl]urea], for which, at human TRPV1 [1], the IC50 was 1300 nM. Further, the “human TRPV1 H^+ (max % remain)” value on human TRPV1 [2] is 60%.

Turning to `O=C(Nc1ccc2c(c1)NC(=O)C(N1CCCOCC1)C2)N[C@@H]1CC(CF)(CF)Oc2cc(Cl)ccc21` (stereo partly drawn) [Example 302, 1-[(4R)-7-chloro-2,2-bis(fluoromethyl)-3,4-dihydro-2H-chromen-4-yl]-3-[3-(1,4-oxazepan-4-yl)-2-oxo-1,2,3,4-tetrahydroquinolin-7-yl]urea], the IC50 on human TRPV1 [1] came out at 200 nM. Besides, at human TRPV1 [2], the “human TRPV1 H^+ (max % remain)” value was 36%.

Consider `CC1(C)C[C@@H](NC(=O)Nc2ccc3c(c2)NC(=O)C(N2CCCOCC2)C3)c2ccc(F)cc2O1` (stereo partly drawn) [Example 303, 1-[(4R)-7-fluoro-2,2-dimethyl-3,4-dihydro-2H-chromen-4-yl]-3-[3-(1,4-oxazepan-4-yl)-2-oxo-1,2,3,4-tetrahydroquinolin-7-yl]urea], for which the IC50 on human TRPV1 [1] stood at 610 nM. Besides, at human TRPV1 [2], the “human TRPV1 H^+ (max % remain)” value turned out to be 2%.

Regarding `CN(CCO)C1Cc2ccc(NC(=O)N[C@@H]3CC(CF)(CF)Oc4cc(Cl)ccc43)cc2NC1=O` (stereo partly drawn) [Example 304, 1-[(4R)-7-chloro-2,2-bis(fluoromethyl)-3,4-dihydro-2H-chromen-4-yl]-3-{3-[(2-hydroxyethyl)(methyl)amino]-2-oxo-1,2,3,4-tetrahydroquinolin-7-yl}urea], at human TRPV1 [1], the IC50 came to 230 nM. Moreover, the “human TRPV1 H^+ (max % remain)” value on human TRPV1 [2] is 0%.

`COCCN(C)C1Cc2ccc(NC(=O)N[C@@H]3CC(C)(C)Oc4cc(F)ccc43)cc2NC1=O` (stereo partly drawn) [Example 305, 1-[(4R)-7-fluoro-2,2-dimethyl-3,4-dihydro-2H-chromen-4-yl]-3-{3-[(2-methoxyethyl)(methyl)amino]-2-oxo-1,2,3,4-tetrahydroquinolin-7-yl}urea]: on human TRPV1 [1], the IC50 worked out at 2000 nM. Further, on human TRPV1 [2], the “human TRPV1 H^+ (max % remain)” value worked out at 26%.

In the case of `COCCN(C)C1Cc2ccc(NC(=O)N[C@@H]3CC(CF)(CF)Oc4cc(Cl)ccc43)cc2NC1=O` (stereo partly drawn) [Example 306, 1-[(4R)-7-chloro-2,2-bis(fluoromethyl)-3,4-dihydro-2H-chromen-4-yl]-3-{3-[(2-methoxyethyl)(methyl)amino]-2-oxo-1,2,3,4-tetrahydroquinolin-7-yl}urea], the IC50 at human TRPV1 [1] was determined as 440 nM. For the same compound, the “human TRPV1 H^+ (max % remain)” value on human TRPV1 [2] stood at 31%.

On to `CC1(C)C[C@@H](NC(=O)Nc2ccc3c(c2)NC(=O)N(CCO)C3)c2cccc(C(F)(F)F)c2O1` [Example 307, 1-[(4R)-2,2-dimethyl-8-(trifluoromethyl)-3,4-dihydro-2H-chromen-4-yl]-3-[3-(2-hydroxyethyl)-2-oxo-1,2,3,4-tetrahydroquinazolin-7-yl]urea], for which the IC50 on human TRPV1 [1] is 1300 nM. In addition, on human TRPV1 [2], the “human TRPV1 H^+ (max % remain)” value was determined as 37%.

`O=C(Nc1ccc2c(c1)NC(=O)N(CCO)C2)N[C@@H]1CCOc2ccccc21` [Example 308, 1-[(4R)-3,4-dihydro-2H-chromen-4-yl]-3-[3-(2-hydroxyethyl)-2-oxo-1,2,3,4-tetrahydroquinazolin-7-yl]urea]: the IC50 at human TRPV1 [1] stood at 68 nM. The “human TRPV1 H^+ (max % remain)” value at human TRPV1 [2] is 3%.

As to `O=C(Nc1ccc2c(c1)NC(=O)N(CCO)C2)N[C@@H]1CC(CF)(CF)Oc2cc(C(F)(F)F)ccc21` [Example 309, 1-[(4R)-2,2-bis(fluoromethyl)-7-(trifluoromethyl)-3,4-dihydro-2H-chromen-4-yl]-3-[3-(2-hydroxyethyl)-2-oxo-1,2,3,4-tetrahydroquinazolin-7-yl]urea], the IC50 at human TRPV1 [1] was 18000 nM. Further, on human TRPV1 [2], the “human TRPV1 H^+ (max % remain)” value turned out to be 36%.

For the compound `CCCC1(CCC)C[C@@H](NC(=O)Nc2ccc3c(c2)NC(=O)N(CCO)C3)c2cc(F)ccc2O1` [Example 310, 1-[(4R)-6-fluoro-2,2-dipropyl-3,4-dihydro-2H-chromen-4-yl]-3-[3-(2-hydroxyethyl)-2-oxo-1,2,3,4-tetrahydroquinazolin-7-yl]urea], at human TRPV1 [1], the IC50 worked out at 190 nM. Further, the “human TRPV1 H^+ (max % remain)” value on human TRPV1 [2] is on record as 2%.

For `CCCC1(CCC)C[C@@H](NC(=O)Nc2ccc3c(c2)NC(=O)N(CCO)C3)c2cccc(F)c2O1` [Example 311, 1-[(4R)-8-fluoro-2,2-dipropyl-3,4-dihydro-2H-chromen-4-yl]-3-[3-(2-hydroxyethyl)-2-oxo-1,2,3,4-tetrahydroquinazolin-7-yl]urea], at human TRPV1 [1], the concentration for half-maximal inhibition (IC50) was found to be 150 nM. Also, the “human TRPV1 H^+ (max % remain)” value on human TRPV1 [2] came out at 14%.

As to `CC1(C)C[C@@H](NC(=O)Nc2ccc3c(c2)NC(=O)N(CCO)C3)c2ccc(F)c(Cl)c2O1` [Example 312, 1-[(4R)-8-chloro-7-fluoro-2,2-dimethyl-3,4-dihydro-2H-chromen-4-yl]-3-[3-(2-hydroxyethyl)-2-oxo-1,2,3,4-tetrahydroquinazolin-7-yl]urea], the IC50 at human TRPV1 [1] worked out at 200 nM. The “human TRPV1 H^+ (max % remain)” value at human TRPV1 [2] came out at 36%.

In the case of `CC1(C)C[C@@H](NC(=O)Nc2ccc3c(c2)NC(=O)N(CCO)C3)c2ccc(Cl)cc2O1` [Example 313, 1-[(4R)-7-chloro-2,2-dimethyl-3,4-dihydro-2H-chromen-4-yl]-3-[3-(2-hydroxyethyl)-2-oxo-1,2,3,4-tetrahydroquinazolin-7-yl]urea], the IC50 at human TRPV1 [1] amounted to 76 nM. In addition, at human TRPV1 [2], the “human TRPV1 H^+ (max % remain)” value came to 4%.

Consider `O=C(Nc1ccc2c(c1)NC(=O)N(CCO)C2)N[C@@H]1CC(CF)(CF)Oc2ccccc21` [Example 314, 1-[(4R)-2,2-bis(fluoromethyl)-3,4-dihydro-2H-chromen-4-yl]-3-[3-(2-hydroxyethyl)-2-oxo-1,2,3,4-tetrahydroquinazolin-7-yl]urea], for which, at human TRPV1 [1], the IC50 is 57 nM. For the same compound, the “human TRPV1 H^+ (max % remain)” value at human TRPV1 [2] is given as 0%.

A word on the IC50: it is the concentration that gives 50% inhibition.
